# From US6403591B1, “1-azatricyclic-4-benzylpiperazines” (Neurogen Corporation, priority 1999, dated 2002)
# What was measured:
# [1] = target: primate D2 receptor (UniProt P52702); test: D2 receptor binding, 3H-YM 09151-2, CHO cell membranes; settings: recombinant primate D2 in CHO cells, 0.1 nM 3H-YM 09151-2, 25° C.
# Experimental: (§1) The following assay is a standard assay for determining the binding affinity of compounds to dopamine D4 and D2 receptors.
# (§2) Pellets of Chinese hamster ovary (CHO) cells containing recombinantly produced primate D2, human D4 and human α1 receptors are used for the assays. The sample is homogenized in 100 volumes (w/vol) of 0.05 M Tris HCl buffer containing 120 mM NaCl, 5 mM MgCl2 and 1 mM EDTA at 4° C. and pH 7.4. The sample is then centrifuged at 30,000×g, resuspended and rehomogenized. The sample is then recentrifuged at 30,000×g, the supernatant is removed and the final tissue sample is frozen until it is needed. The tissue is resuspended 1:20 (wt/vol) in 0.05 M Tris HCl buffer containing 120 mM NaCl.
# (§3) Incubations for dopaminergic binding are carried out at 25° C. and contain 0.4 ml of tissue sample, 0.1 nM ^3H-YM 09151-2 (Nemonapride, cis-5-Chloro-2-methoxy-4-(methylamino)-N-(2-methyl-2-(phenylmethyl)-3-pyrrolidinyl)benzamide) and the compound of interest in a total incubation of 1.0 ml. Nonspecific binding is defined as that binding found in the presence of 1 μM spiperone; without further additions, nonspecific binding is less than 20% of total binding.
# [2] = target: T1, human D4 receptor (Homo sapiens, UniProt P21917); test: D4 receptor binding, 3H-YM 09151-2, CHO cell membranes; settings: recombinant human D4 in CHO cells, 0.1 nM 3H-YM 09151-2, 25° C.
# T1 sequence (P21917 1-419): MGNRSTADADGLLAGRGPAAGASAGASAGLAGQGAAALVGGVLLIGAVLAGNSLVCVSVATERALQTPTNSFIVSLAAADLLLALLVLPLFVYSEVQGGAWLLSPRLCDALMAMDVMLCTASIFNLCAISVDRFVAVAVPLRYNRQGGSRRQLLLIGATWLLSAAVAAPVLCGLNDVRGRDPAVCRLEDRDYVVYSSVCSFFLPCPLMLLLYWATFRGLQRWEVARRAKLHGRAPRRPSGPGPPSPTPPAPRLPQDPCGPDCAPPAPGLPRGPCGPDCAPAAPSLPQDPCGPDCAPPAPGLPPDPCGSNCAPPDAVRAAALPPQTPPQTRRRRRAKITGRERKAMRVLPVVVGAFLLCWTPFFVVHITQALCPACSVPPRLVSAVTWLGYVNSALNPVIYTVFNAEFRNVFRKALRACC
# Experimental: as §1, §2, §3
# [3] = test system: human α1 receptor; test: α1 receptor binding, 3H-prazosine, CHO cell membranes; settings: recombinant human α1 in CHO cells
# Experimental: as §2
# Norepinephrine al binding is carried out using ^3H-prazosine as the ligand. Nonspecific binding is determined in the presence of 1 μM prazosine. Preferably, dopamine antagonists should not interact with the α1 adrenergic receptor, as interactions with this G-coupled protein receptor give rise to types of hypotension.
# Chain of primate D2 receptor (P52702 whole entry): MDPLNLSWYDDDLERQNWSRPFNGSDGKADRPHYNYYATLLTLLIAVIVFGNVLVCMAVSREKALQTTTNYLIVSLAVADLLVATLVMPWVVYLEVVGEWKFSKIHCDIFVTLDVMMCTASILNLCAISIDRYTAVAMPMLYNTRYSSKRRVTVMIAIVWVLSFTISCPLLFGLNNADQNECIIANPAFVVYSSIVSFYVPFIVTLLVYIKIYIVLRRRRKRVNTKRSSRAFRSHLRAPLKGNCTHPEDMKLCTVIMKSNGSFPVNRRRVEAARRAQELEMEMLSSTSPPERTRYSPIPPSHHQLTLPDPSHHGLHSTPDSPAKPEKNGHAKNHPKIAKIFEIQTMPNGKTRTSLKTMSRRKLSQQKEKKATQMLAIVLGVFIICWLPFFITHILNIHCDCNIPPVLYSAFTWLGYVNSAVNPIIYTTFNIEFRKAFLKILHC
Compound,Ki [1] [nM],Ki [2] [nM],Ki [3] [nM]
CC1Cc2cccc3c2N1C(=O)C(N1CCN(Cc2ccc(Cl)cc2)CC1)CC3 (mixture of isomers) [Compound 4],50,9,> 1000
"Cc1ccc(CN2CCN(C3CCc4cccc5c4N(CC5)C3=O)CC2)cc1 (centres unmarked) [Compound 1, 5-[(4-methylbenzyl)piperazin-1-yl]-1,2,4,5,6,7-hexahydro-4-oxo-pyrrolo-[3,2,1-jk][1]benzazepine]",–,4,–
"CC1(C)Cc2cccc3c2N1C(=O)C(N1CCN(Cc2ccc(Cl)cc2)CC1)CC3 (centres unmarked) [Compound 2, 5-[(4-chlorobenzyl)piperazin-1-yl]-2,2-dimethyl-1,2,4,5,6,7-hexahydro-4-oxo-pyrrolo-[3,2,1-jk][1]benzazepine]",–,19,–
